Tests used:
[1] = test system: nvGluCl‐1 (nvpLGIC‐1); assay: Two-electrode voltage clamp of Xenopus oocytes expressing nvGluCl‐1 (nvpLGIC‐1); assay type: cell-based, Nematostella vectensis
Description: (§1) Approximately 2–5 ng of cRNA of nvpLGICs were injected into Xenopus laevis oocytes of stages V and VI.
(§2) For electrophysiology, whole‐oocyte currents were measured two days after injection using a two‐electrode voltage clamp (TEVC) set‐up with a TurboTec 03X amplifier (npi electronic GmbH, Tamm, Germany) and a pump‐driven solution exchange system combined with the oocyte testing carousel (OTC), controlled by the interface OTC‐20. […] Standard bath solution contained (in mM): 140 NaCl, 10 HEPES, 1.8 CaCl2, and 1.0 MgCl2, pH was adjusted to 7.4 using NaOH. Solution exchange was controlled using the CellWorks 5.1.1 software (npi electronic). Data were sampled at 0.1–1 kHz and filtered at 20 Hz. Holding potential was −70 mV.
(§3) Electrophysiological data were analyzed offline, and current amplitudes were assessed using CellWorks Reader 6.2.2 (npi electronic GmbH, Tamm, Germany). Concentration‐response relationships were normalized to the currents obtained with a saturating concentration (I/Imax ). The mean of normalized amplitudes was plotted as a function of ligand concentrations.
(§4) Desensitization kinetics and recovery from desensitization were fitted to a mono‐exponential function: (2) y=yo+Ae^−x/τ where yo is the offset, A is the amplitude, and τ is the time constant.

[2] = test system: nvGluCl‐2 (nvpLGIC‐2); assay: Two-electrode voltage clamp of Xenopus oocytes expressing nvGluCl‐2 (nvpLGIC‐2); assay type: cell-based, Nematostella vectensis
Description: as §1, §2, §3, §4

[3] = test system: nvGluCl‐3 (nvpLGIC‐6); assay: Two-electrode voltage clamp of Xenopus oocytes expressing nvGluCl‐3 (nvpLGIC‐6); assay type: cell-based, Nematostella vectensis
Description: as §1, §2, §3, §4

[4] = test system: nvGluCl‐2 K229 mutants; assay: Two-electrode voltage clamp of oocytes expressing nvGluCl‐2 with substitutions of K229 (K229T, K229R, K229M); assay type: cell-based, Nematostella vectensis
Source text: Full‐length DNA sequences of […] subunits were identified and cloned based on bulk and single cell transcriptomes of N. vectensis. nvpLGIC‐1 – nvpLGIC‐4 were cloned in oocyte expression vector pRSSP6009 [72]. nvpLGIC‐5 and […] DNA sequences were synthesized and cloned in the pCDNA3.1 (‐) vector (BioCat GmbH). They were then subcloned in the vector pRSSP6009 (nvpLGIC‐6) or pRSSP 6013 (nvpLGIC‐5). Site‐directed mutations were introduced in nvGluCl‐2 to create the mutants at position K229, using the Quick‐change mutagenesis method. nvpLGIC‐1 – nvpLGIC‐6 subunits were fused with His6‐tags at their C‐terminus using PCR. His6‐tags were incorporated just before the stop codon without changing any other amino acids. All final constructs were sequenced for confirmation. […]
For electrophysiology, whole‐oocyte currents were measured two days after injection using a two‐electrode voltage clamp (TEVC) set‐up with a TurboTec 03X amplifier (npi electronic GmbH, Tamm, Germany) and a pump‐driven solution exchange system combined with the oocyte testing carousel (OTC), controlled by the interface OTC‐20. […]

[5] = test system: nematocytes; design: method as in PMID 32452384; conditions: cited from earlier work
[6] = biological target: nvpLGIC-5 (Nematostella vectensis pentameric ligand-gated ion channel subunit 5), C-terminal His6 (Nematostella vectensis); assay: native gel or EMSA; blue native PAGE of C-terminally His-tagged receptors expressed in Xenopus laevis oocytes, solubilised with digitonin and purified under non-denaturing conditions on Ni-NTA; run native and partially denatured (SDS 1 h at 37°C; methods say LiDS) to count lower-order intermediates; surface pool detected by IR800 fluorescence, total pool by 35S phosphorimaging
[7] = test system: nvpLGIC‐1 – nvpLGIC‐7; assay: Ligand screen by two-electrode voltage clamp, nvpLGIC‐1 – nvpLGIC‐7 expressed individually in Xenopus oocytes; assay type: cell-based, Nematostella vectensis; conditions: for evoked currents: 1 µM–1 mM
Description: Approximately 2–5 ng of cRNA of nvpLGICs were injected into Xenopus laevis oocytes of stages V and VI. Injected oocytes were incubated at 19 °C in oocyte Ringer's solution (OR‐2) containing (in mM): 82.5 NaCl, 2.5 KCl, 1.0 Na2HPO4,1.0 MgCl2, 1.0 CaCl2, 5.0 HEPES, 0.5 g l^−1 PVP, 1000 U l^−1 penicillin, and 10 mg l^−1 streptomycin. pH was adjusted to 7.3 using NaOH.
For electrophysiology, whole‐oocyte currents were measured two days after injection using a two‐electrode voltage clamp (TEVC) set‐up with a TurboTec 03X amplifier (npi electronic GmbH, Tamm, Germany) and a pump‐driven solution exchange system combined with the oocyte testing carousel (OTC), controlled by the interface OTC‐20. For nvGluCl‐1, the His‐tagged version was functionally characterized. Standard bath solution contained (in mM): 140 NaCl, 10 HEPES, 1.8 CaCl2, and 1.0 MgCl2, pH was adjusted to 7.4 using NaOH. Solution exchange was controlled using the CellWorks 5.1.1 software (npi electronic). Data were sampled at 0.1–1 kHz and filtered at 20 Hz. Holding potential was −70 mV.

[8] = biological target: nvpLGIC-1 (Nematostella vectensis pentameric ligand-gated ion channel subunit 1), C-terminal His6 (Nematostella vectensis); assay: native gel or EMSA; blue native PAGE of C-terminally His-tagged receptors expressed in Xenopus laevis oocytes, solubilised with digitonin and purified under non-denaturing conditions on Ni-NTA; run native and partially denatured (SDS 1 h at 37°C; methods say LiDS) to count lower-order intermediates; surface pool detected by IR800 fluorescence, total pool by 35S phosphorimaging
[9] = biological target: nvpLGIC-3 (Nematostella vectensis pentameric ligand-gated ion channel subunit 3), C-terminal His6 (Nematostella vectensis); assay: as above
[10] = biological target: the molecule itself; assay: as above
[11] = at 500 µM glutamate, single exponential fit
[12] = read-out: EC50, half‐maximal activation, TEVC, holding potential −70 mV
[13] = also with a mix of nvpLGIC‐1 – nvpLGIC‐7, nvpLGIC‐7 not tested individually

N[C@@H](CCC(=O)O)C(=O)O [glutamate]
evoked currents ([1]; 100 µM): evoked large currents | time constant of desensitization, τdes [1, 11]: 26 ± 3 ms | EC50 ([1]; read-out: EC50, half‐maximal activation, TEVC, holding potential −70 mV, His‐tagged version): 16 µM | evoked currents ([2]; 100 µM): evoked large currents | recovery from desensitization, τrecovery ([2]; 30 s desensitizing pulse of 100 µM glutamate): 31 s | time constant of desensitization, τdes [2, 11]: 111 ± 47 ms | EC50 [2, 12]: 102 µM | evoked currents ([3]; 100 µM): evoked large currents | time constant of desensitization, τdes [3, 11]: 161 ± 93 ms | recovery from desensitization, τrecovery ([3]; desensitization by 30 µM glutamate for 30 s): 38 s | EC50 [3, 12]: 7 µM | response to glutamate of K229T, K229R, K229M mutants ([4]; 10 mM glutamate): almost completely abolished the response | elicited currents [5]: neither Glu nor GABA elicit currents

nvpLGIC-5 (Nematostella vectensis pentameric ligand-gated ion channel subunit 5), C-terminal His6 (receptor)
stoichiometry N [6]: 5

picrotoxin [PTx]
IC50 ([2]; 100 µM glutamate, read-out: apparent IC50, inhibition of glutamate-evoked current): ~10 µM

NCCC(=O)O [β‐alanine]
elicited currents [7, 13]: did not elicit currents

NCCc1c[nH]c2ccc(O)cc12 [serotonin]
elicited currents ([7]; 1 mM): did not elicit currents

N[C@@H](CC(=O)O)C(=O)O [aspartate]
elicited currents [7, 13]: did not elicit currents

NCCc1c[nH]cn1 [histamine]
elicited currents [7, 13]: did not elicit currents

nvpLGIC-1 (Nematostella vectensis pentameric ligand-gated ion channel subunit 1), C-terminal His6 (receptor)
stoichiometry N [8]: 5

N[C@H](CO)C(=O)O [D‐serine]
elicited currents ([7]; 1 mM): did not elicit currents

CC(=O)OCC[N+](C)(C)C [acetylcholine]
elicited currents ([7]; 1 mM): did not elicit currents | elicited currents [5]: elicits an inward Ca^2+ current

NCCCC(=O)O [GABA, γ‐aminobutyric acid]
evoked currents [7]: neither GABA nor glycine (1 µM–1 mM) evoked currents | activation of K229 mutant channels [4]: still not activated | elicited currents [5]: neither Glu nor GABA elicit currents

nvpLGIC-3 (Nematostella vectensis pentameric ligand-gated ion channel subunit 3), C-terminal His6 (receptor)
stoichiometry N [9]: 5

NCC(=O)O [glycine]
evoked currents [7]: neither GABA nor glycine (1 µM–1 mM) evoked currents

NC(=O)CC[C@H](N)C(=O)O [glutamine]
elicited currents [7, 13]: did not elicit currents

B1: human GABAA receptor β3 subunit (hGABRB3), His-tagged (receptor, UniProt P28472 26-473, looked up)
chain: QSVNDPGNMSFVKETVDKLLKGYDIRLRPDFGGPPVCVGMNIDIASIDMVSEVNMDYTLTMYFQQYWRDKRLAYSGIPLNLTLDNRVADQLWVPDTYFLNDKKSFVHGVTVKNRMIRLHPDGTVLYGLRITTTAACMMDLRRYPLDEQNCTLEIESYGYTTDDIEFYWRGGDKAVTGVERIELPQFSIVEHRLVSRNVVFATGAYPRLSLSFRLKRNIGYFILQTYMPSILITILSWVSFWINYDASAARVALGITTVLTMTTINTHLRETLPKIPYVKAIDMYLMGCFVFVFLALLEYAFVNYIFFGRGPQRQKKLAEKTAKAKNDRSKSESNRVDAHGNILLTSLEVHNEMNEVSGGIGDTRNSAISFDNSGIQYRKQSMPREGHGRFLGDRSLPHKKTHLRRRSSQLKIKIPDLTDVNAIDRWSRIVFPFTFSLFNLVYWLYYVN
modifications: metabolically labelled with [35S]methionine; surface pool labelled with the lysine-reactive dye IR800-NHS ester
notes: human GABAA receptor subunit β3 (GABRB3), full-length cDNA from the Harvard Plasmid Repository, subcloned into a Gateway-compatible pNKS2 vector; Positive control for homopentamer formation; also called human GABAA β3; human β3 receptor; source: Xenopus laevis oocytes, cRNA-injected; digitonin-solubilised, purified (Ni-NTA); not shown: His tag, C-terminal, kept
stoichiometry N [10]: 5
